In patent US8906111B2, “Artificial bone material having controlled calcium ion elution” (The University of Tokyo, priority 2008, dated 2014):

Legend:
[1] = tested on: Macrophage-like cells RAW267.4; assay: Release of [3H] arachidonic acid (lipid mediator) from macrophage-like cells treated with CaCl2-gluconic acid solutions; type: cell-based; details: FIG. 3
Experimental: An increased concentration of extracellular calcium ions activates an inflammatory response route through increase of intracellular calcium ion and/or a sensing mechanism of extracellular calcium ion. The present inventors studied whether induction of inflammatory responses due to increase of calcium ions can be prevented or not by chelating calcium ions. Solutions of 5 mM CaCl2—0.384% gluconic acid and 7.5 mM CaCl2—0.384% gluconic acid (referred to as Ca^2+Gluc.Acid), the pH of which were adjusted to approximately 7 with NaOH, were prepared and allowed to stand for one hour at room temperature. Macrophage-like cells RAW267.4, which were labeled with 1 μCi [^3H] arachidonic acid one day before, were treated with respective CaCl2-gluconic acid solutions for one hour, and measured for the amount of released lipid mediator with a liquid scintillation counter.
FIG. 3 is a graph, in place of a drawing, showing that gluconic acid prevents inflammatory responses induced by calcium ions. Each vertical axis of FIGS. 3A and 3B indicates release of arachidonic acid (rates of released [^3H] arachidonic acid). The higher value refers to more arachidonic acid being released, indicating an activation of arachidonate cascade, which is one of the major inflammatory responses. In FIG. 3, the “mock” refers to a sample without CaCl2 or gluconic acid addition, which was prepared as a control. […]

[2] = Chelating effect on calcium ion measured with a calcium ion electrode; type: physicochemical; details: 0.25% to 25% gluconic acid containing 2.5 mM CaCl2, pH 7.0; FIG. 2
Experimental: To confirm chelating effects of gluconic acid on calcium ion, the concentration of calcium ion in the presence of gluconic acid was measured with a calcium ion electrode. The vertical axis of FIG. 2 indicates the concentration of calcium ion (Ca^2+) (mg/L). […] The results might be attributed to the gluconic acid chelating calcium ions.

Row | SMILES | release of arachidonic acid (amount of released lipid mediator) ([1]; CaCl2 (5 mM or 7.5 mM) without gluconic acid, compared with the mock) | release of arachidonic acid (rates of released [3H] arachidonic acid) ([1]; 5 mM or 7.5 mM CaCl2 with 0.384% gluconic acid, pH approx. 7, cells treated one hour) | concentration of calcium ion (Ca2+) [2]
1 | [Ca+2].[Cl-].[Cl-] [CaCl2] | released increased amount of lipid mediator | – | –
2 | O=C(O)[C@H](O)[C@@H](O)[C@H](O)[C@H](O)CO [gluconic acid] | – | arachidonate cascade activation was prevented | the higher the concentration of gluconic acid became, the concentration of calcium ion lowered
